Laboratory results from article PMC8760490, “Discovery of novel furanylbenzamide inhibitors that target oncogenic tyrosine phosphatase SHP2 in leukemia cells” (The Journal of Biological Chemistry, 2021).
pIC50: −log10 of the molar value.

Target: T1, SHP2cat (Homo sapiens, UniProt Q06124)
T1 construct: the SHP2 catalytic domain (SHP2cat; residues 248–527); made in house
T1 sequence (Q06124 248-527): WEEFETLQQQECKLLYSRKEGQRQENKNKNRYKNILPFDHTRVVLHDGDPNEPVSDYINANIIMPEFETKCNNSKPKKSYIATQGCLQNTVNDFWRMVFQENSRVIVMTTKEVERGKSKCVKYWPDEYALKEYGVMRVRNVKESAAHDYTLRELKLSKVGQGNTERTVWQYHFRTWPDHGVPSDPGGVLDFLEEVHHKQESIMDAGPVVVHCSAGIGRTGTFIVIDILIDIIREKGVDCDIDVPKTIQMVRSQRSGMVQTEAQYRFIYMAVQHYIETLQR
Assay: OMFP fluorescence phosphatase inhibition assay, SHP2cat
Assay type: biochemical
Conditions: substrate OMFP at Km (50 μM); read-out: IC50 against SHP2cat with OMFP
Excerpt: We confirmed specific and dose-dependent binding of inhibitors to SHP2 by PTS, which monitors the thermal stability of a target protein in vitro ([40]). […] In addition, we confirmed the inhibitory activity of several furanylbenzamide inhibitors, including the top two compounds SBI-2130 and SBI-4668, in SHP2cat inhibition assays using the alternative substrate 3-O-methylfluorescein phosphate (OMFP), which features a peak fluorescence emission that is red-shifted by ∼75 nm compared with DiFMUP. The Km value of OMFP for SHP2cat was determined to be 50 μM. An OMFP fluorescence intensity–based assay was used to perform inhibitor dose–response experiments and determine IC50 values.
SHP2 inhibitors were tested at RT in a 384-well plate format standard phosphatase fluorescence intensity assay using DiFMUP (Invitrogen/Thermo Fisher Scientific) as a substrate and a total reaction volume of 25 μl. […] Fluorescence intensity was measured in kinetic mode (every minute for 7 or 10 min) using a Tecan Spark Multimode Microplate Reader (Tecan) with an excitation wavelength of 360 nm and an emission wavelength of 460 nm. The initial rates were determined from the linear progression curves of the PTP reaction. […] IC50 values were calculated from the corrected initial rates by nonlinear regression using the program GraphPad Prism, version 8 (GraphPad Software, Inc) software. […]

Structure (SMILES)	pIC50
O=C(Nc1ccccc1)c1cc(-c2ccc(/C=C3\Sc4ccccc4C3=O)o2)ccc1O [SBI-4668, (Z)-2-Hydroxy-5-(5-((3-oxobenzo[b]thiophen-2(3H)-ylidene)methyl)furan-2-yl)-N-phenylbenzamide]	5.92
Nc1ccc(NC(=O)c2cc(-c3ccc(/C=C4\Sc5ccccc5C4=O)o3)ccc2O)cc1 [SBI-2130, (Z)-N-(4-Aminophenyl)-2-hydroxy-5-(5-((3-oxobenzo[b]thiophen-2(3H)-ylidene)methyl)furan-2-yl)benzamide]	6.36
